Key:
[1] = Determination of bioavailability in the rat; assay type: in vivo; details: oral, rats, gavage 10 mg/kg versus intravenously 1 mg/kg, plasma LC-MS
Method: The phosphotetrahydropyran test compound (Formula 1; n=1 and R=2,4-dimethylphenyl) was administered to rats by gavage at 10 mg/kg or intravenously at 1 mg/kg). Blood samples were taken at 15 and 30 min and at 1, 2, 3, 4, 8, 12 and 24 hours. Plasma samples were prepared by the addition of 50% acetonitrile/water (20 μL). Protein precipitation was carried out by the addition of trichloroacetic acid (20% in water, 40 μL), vortexing (20 s) and after storing at 4° C. for 60 minutes, centrifugation (10,000 rpm) in a microcentrifuge for 5 min. The supernatant was subsequently separated and 25 μL injected directly onto the column for LC-MS analysis.

[2] = test system: thioglycolate-induced leukocyte migration in the peritoneal cavity, C57BI/6 mice; experiment: Thioglycolate-induced peritonitis in the mouse; assay type: in vivo; details: for peritoneal total cell number in untreated mice compared with treated mice: −15 min, 3 h
Method: Germ-free male C57BI/6 mice, weighing in the target range of 21.30±0.39 g (6-7 week-old) were anaesthetised with halothane and then received by intravenous route (iv) increasing doses of the phosphotetrahydropyran test compound (5 or 15 mg/kg, −15 min), dexamethasone (1 mg/kg, −60 min) or the respective vehicle (saline 0.9%, pH 7.4). Peritoneal inflammation was induced by i.p. injection of Brewer's thioglycolate. Thioglycolate was prepared freshly (3%, w/v) in sterile saline, and 1.5 mL was injected into the intraperitoneum cavity (ip). Following 3 h treatment, animals were killed (under anesthesia) by cervical dislocation, and cells were recovered by peritoneal lavage using 5 mL of ice-cold PBS. The lavage contents were immediately stored on ice. Peritoneal exudate cells (PEC) were further diluted in 5 mL of ice-cold PBS. The total cell count was determined on a Neubauer chamber with Turk solution, whereas the differential cell counts were conducted on cytospin preparations. Peritoneal lavage was carefully confirmed to be negative for erythrocytes by microscopy to exclude the possibility that leukocyte accumulation in the peritoneal cavity was due to microbleeding, which may occur during animal preparation.
Data are expressed as Mean (±SEM) from n individual animals. Statistical analysis of data was carried out using Software Graphpad prism v4. Comparative data were analysed using ANOVA followed by Dunnett's post test and ANOVA (unpaired Student's T tests). Statistical P values less than 0.05 were taken as significant.
The results of polymorphonuclear (PMN) (A), mononuclear (MN) recruitment (B) and total cells (C) are shown as number of cells per cavity. The results are from a representative experiment with 11 mice. Significant p values for each time point are shown (Dunnett's post test and unpaired T-test).

[3] = biological target: T1, Cation-Independent Mannose 6-Phosphate Receptor (sCI-MPR) (Bos taurus, UniProt P08169); experiment: Antagonism of mannose 6-phosphate binding to the CI-M6P receptor (SPR, Biacore); design: species or system fetal calf; details: mean; SPR at 25° C., sCI-MPR binding to immobilized human β-glucuronidase
T1 construct: Samples of purified sCI-MPR purified from fetal calf serum; from tissue; host or cells: fetal calf serum
T1 sequence (P08169 45-2313 limits assumed): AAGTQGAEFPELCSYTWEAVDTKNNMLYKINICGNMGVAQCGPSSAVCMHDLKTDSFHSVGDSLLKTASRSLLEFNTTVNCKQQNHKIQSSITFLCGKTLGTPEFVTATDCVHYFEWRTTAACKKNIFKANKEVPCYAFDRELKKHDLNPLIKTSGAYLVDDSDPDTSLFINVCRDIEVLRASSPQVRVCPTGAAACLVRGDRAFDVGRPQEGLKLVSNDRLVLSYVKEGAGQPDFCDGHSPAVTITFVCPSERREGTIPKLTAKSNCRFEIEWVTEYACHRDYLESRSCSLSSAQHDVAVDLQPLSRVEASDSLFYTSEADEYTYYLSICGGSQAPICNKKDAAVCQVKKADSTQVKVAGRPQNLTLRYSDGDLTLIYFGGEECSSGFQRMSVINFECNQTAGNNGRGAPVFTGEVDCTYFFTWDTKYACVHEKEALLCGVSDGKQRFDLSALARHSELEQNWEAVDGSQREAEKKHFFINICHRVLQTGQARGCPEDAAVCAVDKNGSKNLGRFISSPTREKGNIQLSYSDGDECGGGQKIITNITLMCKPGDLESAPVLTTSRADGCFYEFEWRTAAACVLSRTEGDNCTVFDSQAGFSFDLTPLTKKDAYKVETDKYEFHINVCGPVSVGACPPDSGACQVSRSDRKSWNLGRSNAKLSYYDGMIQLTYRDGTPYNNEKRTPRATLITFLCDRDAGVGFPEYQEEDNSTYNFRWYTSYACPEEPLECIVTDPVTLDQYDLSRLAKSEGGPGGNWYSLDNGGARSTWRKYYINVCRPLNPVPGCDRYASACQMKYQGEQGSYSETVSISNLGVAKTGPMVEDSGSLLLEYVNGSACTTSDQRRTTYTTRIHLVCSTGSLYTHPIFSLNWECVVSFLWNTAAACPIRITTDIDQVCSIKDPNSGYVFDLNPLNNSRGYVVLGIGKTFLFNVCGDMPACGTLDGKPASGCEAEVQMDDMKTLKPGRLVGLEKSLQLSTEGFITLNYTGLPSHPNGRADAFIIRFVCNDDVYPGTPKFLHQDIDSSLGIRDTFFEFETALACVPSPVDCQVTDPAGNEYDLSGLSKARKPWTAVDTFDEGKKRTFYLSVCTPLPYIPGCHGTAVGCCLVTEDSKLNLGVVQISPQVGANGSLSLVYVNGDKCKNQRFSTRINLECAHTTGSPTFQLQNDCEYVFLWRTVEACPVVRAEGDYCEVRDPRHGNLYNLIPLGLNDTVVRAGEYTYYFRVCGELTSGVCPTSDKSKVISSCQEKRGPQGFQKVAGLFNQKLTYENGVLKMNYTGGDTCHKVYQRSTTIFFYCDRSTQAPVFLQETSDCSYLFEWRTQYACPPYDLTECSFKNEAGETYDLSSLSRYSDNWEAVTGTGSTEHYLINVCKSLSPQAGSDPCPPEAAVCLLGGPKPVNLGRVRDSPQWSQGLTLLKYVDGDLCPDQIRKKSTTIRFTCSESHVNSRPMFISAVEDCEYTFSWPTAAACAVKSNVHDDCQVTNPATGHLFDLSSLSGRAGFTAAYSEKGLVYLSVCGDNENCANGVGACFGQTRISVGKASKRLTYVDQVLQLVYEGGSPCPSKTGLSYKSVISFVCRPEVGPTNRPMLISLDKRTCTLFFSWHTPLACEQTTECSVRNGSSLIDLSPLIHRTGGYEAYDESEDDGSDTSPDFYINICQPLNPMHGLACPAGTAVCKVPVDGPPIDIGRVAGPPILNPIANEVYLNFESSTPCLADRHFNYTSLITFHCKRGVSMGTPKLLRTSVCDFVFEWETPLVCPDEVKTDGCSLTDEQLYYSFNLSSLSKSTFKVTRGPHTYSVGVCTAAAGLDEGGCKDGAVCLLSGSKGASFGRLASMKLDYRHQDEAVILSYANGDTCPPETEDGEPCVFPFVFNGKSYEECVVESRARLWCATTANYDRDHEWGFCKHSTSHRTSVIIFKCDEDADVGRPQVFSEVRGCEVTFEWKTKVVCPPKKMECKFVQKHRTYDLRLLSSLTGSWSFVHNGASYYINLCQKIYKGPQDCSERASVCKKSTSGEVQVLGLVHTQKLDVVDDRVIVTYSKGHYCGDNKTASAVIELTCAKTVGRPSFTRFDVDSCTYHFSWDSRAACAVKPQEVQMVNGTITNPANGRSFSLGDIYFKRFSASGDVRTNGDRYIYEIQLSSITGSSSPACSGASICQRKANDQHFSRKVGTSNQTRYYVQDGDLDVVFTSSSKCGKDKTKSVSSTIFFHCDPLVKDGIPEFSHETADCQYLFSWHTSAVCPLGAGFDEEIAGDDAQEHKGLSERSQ
Method: All surface plasmon resonance (SPR) measurements were performed at 25° C. using a Biacore 3000 instrument (BIAcore, Piscataway, N.J.). CM5 research grade sensor chips, surfactant P20 and amine coupling kits were also obtained from BIAcore. Purified human β-glucuronidase was immobilized on CM5 sensor chips following activation of the surface using 1-ethyl-3-(3-dimethylaminopropyl)carbodiimide and N-hydroxysuccinimide as recommended by the manufacturer. Briefly, the proteins were injected onto the activated dextran surface at a concentration of 10-20 μg/mL in 10 mM sodium acetate buffer, pH 4.5 using 10 mM HEPES pH 7.5, 150 mM NaCl and 0.005% (v/v) P20 as the running buffer. After coupling, unreacted N-hydroxysuccinimide ester groups were blocked with ethanolamine. The reference surface was treated in the same way except that protein was omitted. […] The response at equilibrium for each concentration of protein was determined by averaging the response over a 10 sec period within the steady state region of the sensorgram using the BIAevaluation software package (version 4.0.1). […]

[4] = test system: LPS-induced lung inflammation, C57BI/6 mice; experiment: Acute LPS-induced lung inflammation in the mouse; assay type: in vivo; details: for total number of inflammatory cells in BAL fluid versus LPS control group: 15 min prior to LPS, 3 hours after LPS
Method: Age-matched germ-free male C57BI/6 mice (25.30±0.39 g; 6-7 week-old) were transiently anaesthetized with a mixture of isoflurane and oxygen. The vehicle-treated group received intravenous injection (iv) of saline 15 min prior to intra-tracheal instillation (i.t.) of lipopolysaccharide (LPS, 3 mg/kg). Another set of animals received i.v. injection of dexamethasone at 1 mg/kg or 2.5 mg/kg 1 hour prior to LPS. The phosphotetrahydropyran test compound was administered to the animals at 5, 15 and 30 mg/kg (iv) 15 min prior to LPS instillation. A separate group of mice was used as sham (saline/PBS) and was treated with i.v. injection of saline and i.t. injection of PBS (phosphate buffered saline).
Three hours after the LPS administration, animals were anaesthetized with urethane (25%, […] body weight). A blood sample was collected by cardiac puncture (≅1 mL) and the animals were sacrificed by cervical dislocation. The trachea was cannulated and the lungs were lavaged with 2 mL of PBS containing EDTA (1 mM). The lavaged fluid was harvested by gentle injections and aspirations four times with 0.5 mL each, and centrifuged. The total cell count was determined on a fresh fluid specimen with Turk solution using a Neubauer chamber. Differential cell counts were determined using Cytospin technique. Aliquots of the bronchoalveolar lavage (BAL) supernatants were stored without further treatment at −80° C.
Slices of each pulmonary lobe were immediately removed from the animal, weighed and either frozen in liquid nitrogen for myeloperoxidase (MPO) assay or placed in the oven for lung oedema evaluation. Determination of MPO activity was used as an index of leukocyte accumulation, where one unit of MPO activity was defined as that degrading 1 μmol hydrogen peroxide/min at 25° C. by the formula MPO (U/g)=Vmax/s×60/0.0113/0.5. Data were presented as MPO activity expressed as U/g wet tissue. To determine pulmonary oedema, the left pulmonary lobes were removed, weighed and dried at 60° C. for 48 h for wet to dry weight ratio measurements.

[5] = test system: New Zealand White rabbits, filtering bleb; experiment: Rabbit model of experimental glaucoma filtering surgery; assay type: in vivo; details: intraoperative sponge 3 minutes; PXS-25 40 mg/mL, MMC 0.4 mg/mL
Method: New Zealand White rabbits (18) were subjected to a modified glaucoma filtering surgery in the left eye. The animals received either intraoperative PXS-25 at a concentration of 40 mg/mL (Group 1), intraoperative Mitomycin C (MMC) at a concentration of 0.4 mg/mL (Group 2), or intraoperative test compound and Mitomycin C (MMC) (Group 3).
Filtration surgery was performed on the left eye only. MMC, test compound (Formula 1) or the combination were delivered with a large sponge measuring 8×10 mm (dry size) cut from a Weck-Cel prior to cutting the flap and sclerostomy. The sponge pieces were placed between the conjunctiva and sclera over the determined filtration site for 3 minutes. The area was then thoroughly irrigated with 30 mL of physiologic saline. The animals were reviewed on the first day after surgery, and then weekly until bleb failure. The study was terminated after the 8 week. Fluorescein tracer studies was performed as follows. Sodium fluorescein was injected into the anterior chamber and the drainage pathway using a slit lamp based digital video camera system was recorded. The animals were sacrificed and tissue sections were prepared for immunohistochemically staining for signs of scarring and inflammation.

| Compound | bioavailability [1] [%] | peritoneal total cell number in untreated mice compared with treated mice ([2]; 5 mg/kg iv) | peritoneal total cell number in untreated mice compared with treated mice ([2]; 15 mg/kg iv) | anti-inflammatory actions (leukocyte migration into the peritoneal cavity) ([2]; iv pre-treatment, 3 h after thioglycolate) | Ki [3] [µM] | total number of inflammatory cells in BAL fluid versus LPS control group ([4]; 5 mg/kg iv) | total number of inflammatory cells in BAL fluid versus LPS control group ([4]; 15 mg/kg iv) | total number of inflammatory cells in BAL fluid versus LPS control group ([4]; 30 mg/kg iv) | decrease of neutrophils number in BAL fluid compared to vehicle (saline)-control group ([4]; iv pre-treatment 15 min prior to LPS, P<0.05) [%] | tissue surrounding the site of surgical intervention / bleb [5] |
| --- | --- | --- | --- | --- | --- | --- | --- | --- | --- | --- |
| Cc1ccc(COC2O[C@H](CCP(=O)(O)O)[C@@H](O)[C@H](O)[C@@H]2O)c(C)c1 (some centres unmarked) [Formula 1; n=1 and R=2,4-dimethylphenyl] | 7.7 | markedly higher | markedly higher | Dose-dependent anti-inflammatory actions | 7.9 | not significantly different | significant inhibition | not significantly different | 86.7 | – |
| CO[C@@]12[C@H](COC(N)=O)C3=C(C(=O)C(C)=C(N)C3=O)N1C[C@@H]1N[C@@H]12 [Mitomycin C] | – | – | – | – | – | – | – | – | – | very visible dead tissue surrounding the bleb |
| O=C[C@@H](O)[C@@H](O)[C@H](O)[C@H](O)COP(=O)(O)O [mannose-6-phosphate, reference compound] | – | – | – | – | 19 | – | – | – | – | – |
